Consider 1 compound from publication PMC4452934 (CPT: Pharmacometrics & Systems Pharmacology, 2015).

Bounds are passed on as bounds.

The nature of this series: Excretion in bile-duct cannulated rats. The format is in vivo, rat.

On to `CCn1c(C(=O)N(C2CC2)C2CC2)cc2c3c(ncn3C)c(Nc3cc(C)n(C)n3)nc21` [BMS-911543], for which the “direct excretion in bile and urine” value was < 2 % of total clearance.
